Experimental data as given in BigSolDB 2.1.

CN1c2ccccc2C(=O)N2CCc3c([nH]c4ccccc34)[C@H]21
solubility (mole fraction)
Conditions | 283.2 K | 288.2 K | 293.2 K | 298.2 K | 303.2 K | 313.2 K | 323.2 K
in acetone | 0.000216 | – | 0.000303 | – | 0.00038 | 0.000513 | 0.000676
in chloroform | 0.000683 | – | 0.000876 | – | 0.00105 | 0.00135 | 0.00183
in cyclohexane | 1.68e-06 | – | 2.81e-06 | – | 4.49e-06 | 6.47e-06 | 9.36e-06
in dichloromethane | 0.000334 | 0.00037 | 0.000417 | 0.00048 | 0.000571 | – | –
in diethyl ether | 4.06e-05 | 5.16e-05 | 6.93e-05 | 7.51e-05 | 9.09e-05 | – | –
in ethanol | 6.12e-05 | – | 8.02e-05 | – | 0.000116 | 0.000173 | 0.000257
in ethyl acetate | 0.000135 | – | 0.000165 | – | 0.000255 | 0.000321 | 0.000412
in isopropanol | 7e-05 | – | 8.69e-05 | – | 0.000119 | 0.000181 | 0.000287
in methanol | 3.52e-05 | – | 5.19e-05 | – | 7.24e-05 | 0.00011 | 0.000176
in n-butanol | 0.000112 | – | 0.000139 | – | 0.000216 | 0.000317 | 0.000458
in n-hexane | 1.05e-06 | – | 1.66e-06 | – | 2.61e-06 | 4.37e-06 | 5.84e-06
in n-pentane | 1.59e-06 | 2.2e-06 | 2.92e-06 | 3.79e-06 | 4.7e-06 | – | –
